Activity calls are given as the source filed them. No cut-off for these calls is given here.

The text below walks through data of ChEMBL document CHEMBL3098108, “Design, synthesis and evaluation of dual pharmacology β2-adrenoceptor agonists and PDE4 inhibitors” (Bioorg Med Chem Lett, 2014).

Experiment [1] deals with Beta-2 adrenergic receptor (Cavia porcellus, UniProt Q8K4Z4). Put plainly: Agonist activity at guinea pig trachea beta2-adrenergic receptor assessed as relaxation of histamine-induced tracheal ring contraction.
Experiment [2] deals with 3',5'-cyclic-AMP phosphodiesterase 4B (Homo sapiens, UniProt Q07343). Put plainly: Inhibition of human recombinant PDE4B2 assessed as inhibition of cAMP hydrolysis by colorimetric assay.
For experiment [3], the target named is Beta-2 adrenergic receptor (Cavia porcellus) (UniProt Q8K4Z4). Put plainly: Agonist activity at guinea pig trachea beta2-adrenergic receptor assessed as relaxation of histamine-induced tracheal ring contraction in presence of ICI-118551.
Chain of Beta-2 adrenergic receptor (Cavia porcellus) (Q8K4Z4 whole entry, looked up): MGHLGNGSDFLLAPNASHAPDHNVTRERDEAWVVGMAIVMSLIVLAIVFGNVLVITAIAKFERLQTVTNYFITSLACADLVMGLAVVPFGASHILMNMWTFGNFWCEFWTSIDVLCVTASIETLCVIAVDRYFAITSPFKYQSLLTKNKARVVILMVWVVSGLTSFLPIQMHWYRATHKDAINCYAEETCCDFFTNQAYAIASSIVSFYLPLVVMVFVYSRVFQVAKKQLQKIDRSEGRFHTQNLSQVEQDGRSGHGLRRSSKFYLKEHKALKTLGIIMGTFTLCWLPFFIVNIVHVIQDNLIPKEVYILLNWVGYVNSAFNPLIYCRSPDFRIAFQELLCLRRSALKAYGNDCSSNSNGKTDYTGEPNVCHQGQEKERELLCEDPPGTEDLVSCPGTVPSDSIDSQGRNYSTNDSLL

Chain of Beta-2 adrenergic receptor (Q8K4Z4 whole entry): as the sequence (Q8K4Z4 whole entry, looked up) above
Chain of 3',5'-cyclic-AMP phosphodiesterase 4B (Q07343 whole entry): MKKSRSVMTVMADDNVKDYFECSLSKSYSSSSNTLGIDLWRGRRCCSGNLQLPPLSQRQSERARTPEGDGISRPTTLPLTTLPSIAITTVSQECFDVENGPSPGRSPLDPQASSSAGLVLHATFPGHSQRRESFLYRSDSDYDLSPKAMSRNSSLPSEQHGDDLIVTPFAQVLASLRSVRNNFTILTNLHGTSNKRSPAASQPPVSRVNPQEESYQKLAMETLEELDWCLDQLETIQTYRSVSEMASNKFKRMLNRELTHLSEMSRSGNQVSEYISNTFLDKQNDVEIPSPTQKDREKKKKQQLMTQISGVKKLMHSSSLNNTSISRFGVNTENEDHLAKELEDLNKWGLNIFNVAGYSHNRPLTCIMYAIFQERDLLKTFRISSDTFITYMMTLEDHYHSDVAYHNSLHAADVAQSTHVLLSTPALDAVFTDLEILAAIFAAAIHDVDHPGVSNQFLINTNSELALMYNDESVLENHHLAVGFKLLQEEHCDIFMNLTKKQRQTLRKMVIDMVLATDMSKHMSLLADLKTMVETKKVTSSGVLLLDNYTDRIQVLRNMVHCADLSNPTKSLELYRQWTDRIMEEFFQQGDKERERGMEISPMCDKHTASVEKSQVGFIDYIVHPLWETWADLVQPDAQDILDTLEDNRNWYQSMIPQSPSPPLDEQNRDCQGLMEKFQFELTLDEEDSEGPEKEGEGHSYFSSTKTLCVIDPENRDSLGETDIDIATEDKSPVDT

As a reminder, the EC50 is the midpoint of the concentration-response curve. Broadly, the IC50 is the concentration that gives 50% inhibition. Take `COc1ccc(C2=NN(CCCCOc3ccc(CC(C)NCC(O)c4ccc(O)c(NC=O)c4)cc3)C(=O)C3CCCCC23)cc1OC` (centres undefined): the EC50 in experiment [1] was 10.3 nM. Besides, the IC50 in experiment [2] is 117 nM.
Take `COc1ccc(C2=NN(CCCCCOc3ccc(CC(C)NCC(O)c4ccc(O)c(NC=O)c4)cc3)C(=O)C3CCCCC23)cc1OC` (centres undefined): in experiment [1], the EC50 was found to be 12.6 nM. Further, the IC50 in experiment [2] was 118 nM.
With `COc1ccc(C2=NN(CCCCCCOc3ccc(C[C@@H](C)NC[C@H](O)c4ccc(O)c(NC=O)c4)cc3)C(=O)C3CCCCC23)cc1OC` (some centres undefined), the EC50 in experiment [1] was determined as 1.05 nM. In experiment [2], the IC50 was found to be 92 nM. Further, the result in experiment [3] was Active.
Consider `COc1ccc(C2=NN(CCCCCCOc3ccc(CC(C)NCC(O)c4ccc(O)c(NC=O)c4)cc3)C(=O)C3CCCCC23)cc1OC` (racemic), for which the EC50 in experiment [1] stood at 5.02 nM. In experiment [2], the IC50 is 104 nM.
